PubChem BioAssay (NCI)
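A five-concentration, 48-hour dose response in 96-well plates underlies each endpoint, interpolated linearly between surrounding concentrations. GI50 is the concentration that inhibits growth by half. TGI is the concentration that stops growth completely.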

Columns and labels:
Test in all cases: NCI-60 cell line screen, 48 h
[1] = test system: 786-0 renal
[2] = test system: A549 NSCLC
[3] = test system: ACHN renal
[4] = test system: BT-549 breast
[5] = test system: CAKI-1 renal
[6] = test system: CCRF-CEM leukemia
[7] = test system: COLO 205 colon
[8] = test system: DU-145 prostate
[9] = test system: HCC-2998 colon
[10] = test system: HCT-116 colon
[11] = test system: HCT-15 colon
[12] = test system: HL-60(TB) leukemia
[13] = test system: HOP-62 NSCLC
[14] = test system: HOP-92 NSCLC
[15] = test system: HS 578T breast
[16] = test system: HT29 colon
[17] = test system: IGROV1 ovarian
[18] = test system: K-562 leukemia
[19] = test system: KM12 colon
[20] = test system: LOX IMVI melanoma
[21] = test system: MALME-3M melanoma
[22] = test system: MCF7 breast
[23] = test system: MDA-MB-231 breast
[24] = test system: MDA-MB-435
[25] = test system: MOLT-4 leukemia
[26] = test system: NCI-H226 lung
[27] = test system: NCI-H23 lung
[28] = test system: NCI-H460 lung

Q: For `FC(F)(F)c1cccc(CNC2CCN(CCc3ccccc3)CC2)c1`, which GI50 [1] is on record?
A: The GI50 was 14.6 µM.

Q: What about the TGI [1] of the same compound?
A: The TGI was 32.6 µM.

Q: And the GI50 [2]?
A: The GI50 was 40.3 µM.

Q: What about the TGI [2] of the same compound?
A: The TGI was greater than 100 µM.

Q: What about the GI50 [3] of the same compound?
A: Its GI50 is 33.2 µM.

Q: What about the TGI [3] of the same compound?
A: Its TGI is greater than 100 µM.

Q: What about the GI50 [4] of the same compound?
A: Its GI50 is 24.8 µM.

Q: What about the TGI [4] of the same compound?
A: Its TGI is greater than 100 µM.

Q: And the GI50 [5]?
A: The GI50 was 22.4 µM.

Q: And the TGI [5]?
A: The TGI was greater than 100 µM.

Q: What about the GI50 [6] of the same compound?
A: The GI50 was 27 µM.

Q: And the TGI [6]?
A: The TGI was 75.8 µM.

Q: What about the GI50 [7] of the same compound?
A: Its GI50 is 16.9 µM.

Q: And the TGI [7]?
A: The TGI was 34.3 µM.

Q: What about the GI50 [8] of the same compound?
A: The GI50 was 46.3 µM.

Q: What about the TGI [8] of the same compound?
A: Its TGI is greater than 100 µM.

Q: And the GI50 [9]?
A: Its GI50 is 17.7 µM.

Q: And the TGI [9]?
A: The TGI was 37.2 µM.

Q: And the GI50 [10]?
A: Its GI50 is 22.1 µM.

Q: What about the TGI [10] of the same compound?
A: The TGI was 76.7 µM.

Q: And the GI50 [11]?
A: Its GI50 is 23.3 µM.

Q: And the TGI [11]?
A: The TGI was greater than 100 µM.

Q: What about the GI50 [12] of the same compound?
A: The GI50 was 20.9 µM.

Q: What about the TGI [12] of the same compound?
A: The TGI was 49 µM.

Q: And the GI50 [13]?
A: Its GI50 is 37.5 µM.

Q: What about the TGI [13] of the same compound?
A: The TGI was greater than 100 µM.

Q: What about the GI50 [14] of the same compound?
A: Its GI50 is 11.2 µM.

Q: And the TGI [14]?
A: Its TGI is 47.1 µM.

Q: What about the GI50 [15] of the same compound?
A: Its GI50 is 17.7 µM.

Q: And the TGI [15]?
A: Its TGI is 57.5 µM.

Q: And the GI50 [16]?
A: Its GI50 is 13.5 µM.

Q: And the TGI [16]?
A: The TGI was 46.1 µM.

Q: And the GI50 [17]?
A: The GI50 was 55.9 µM.

Q: And the TGI [17]?
A: The TGI was greater than 100 µM.

Q: And the GI50 [18]?
A: Its GI50 is 15.5 µM.

Q: What about the TGI [18] of the same compound?
A: The TGI was 42.9 µM.

Q: What about the GI50 [19] of the same compound?
A: The GI50 was 22.5 µM.

Q: And the TGI [19]?
A: Its TGI is 56.6 µM.

Q: What about the GI50 [20] of the same compound?
A: The GI50 was 15.5 µM.

Q: And the TGI [20]?
A: The TGI was 29.1 µM.

Q: What about the GI50 [21] of the same compound?
A: The GI50 was 16 µM.

Q: And the TGI [21]?
A: The TGI was 31 µM.

Q: And the GI50 [22]?
A: Its GI50 is 16 µM.

Q: And the TGI [22]?
A: The TGI was 34.6 µM.

Q: What about the GI50 [23] of the same compound?
A: The GI50 was 12.6 µM.

Q: And the TGI [23]?
A: The TGI was 35.2 µM.

Q: What about the GI50 [24] of the same compound?
A: Its GI50 is 15.9 µM.

Q: And the TGI [24]?
A: The TGI was 30.8 µM.

Q: What about the GI50 [25] of the same compound?
A: The GI50 was 20.5 µM.

Q: And the TGI [25]?
A: Its TGI is 70.4 µM.

Q: And the GI50 [26]?
A: Its GI50 is 62.4 µM.

Q: What about the TGI [26] of the same compound?
A: The TGI was greater than 100 µM.

Q: What about the GI50 [27] of the same compound?
A: Its GI50 is 51.8 µM.

Q: And the TGI [27]?
A: The TGI was greater than 100 µM.

Q: And the GI50 [28]?
A: The GI50 was 19.1 µM.
